This is an account of results in patent US7868204B2, “Inhibitors of histone deacetylase” (MethylGene Inc., priority 2001, dated 2011).

Experiment [1] has as its target T1, cloned recombinant human HDAC-1 (Homo sapiens, UniProt Q13547).
T1 construct: made in house; host or cells: Baculovirus insect cell expression system
As to the kind of experiment: Human HDAC-1 enzyme inhibition, Assay 1 ([3H]-acetylated histone substrate, scintillation counting). Format: biochemical. Here is the method: Assay 1. HDAC inhibitors were screened against a cloned recombinant human HDAC-1 enzyme expressed and purified from a Baculovirus insect cell expression system. […] The mixture was extracted with ethyl acetate and the released [^3H]-acetic acid was quantified by scintillation counting. For inhibition studies, the enzyme was preincubated with compounds at 4° C. for 30 minutes prior to initiation of the enzymatic assay. IC50 values for HDAC enzyme inhibitors were determined by performing dose response curves with individual compounds and determining the concentration of inhibitor producing fifty percent of the maximal inhibition.

For experiment [2], the system named is HCT116 cells. Kind of experiment: MTT assay. Format: cell-based. Particulars: Homo sapiens, HCT116 cells, 72 hours. As to the method:
HCT116 cells (2000/well) were plated into 96-well tissue culture plates one day before compound treatment. Compounds at various concentrations were added to the cells. The cells were incubated for 72 hours at 37° C. in 5% CO2 incubator. MTT (3-[4,5-dimethylthiazol-2-yl]-2,5 diphenyl tetrazolium bromide, Sigma) was added at a final concentration of 0.5 mg/ml and incubated with the cells for 4 hours before one volume of solubilization buffer (50% N,N-dimethylformamide, 20% SDS, pH 4.7) was added onto the cultured cells. […] OD values were converted to cell numbers according to a standard growth curve of the relevant cell line.

Setting [3] is: Table 5F, read-out: Human HDAC-1 IC50.
Where [4] appears, read: Table 5b, read-out: Human HDAC-1 IC50.
Where [5] appears, read: Table 5d, read-out: HDAC-1 IC50.

Where two headings read alike, the source gives them in different places.

T1 sequence (Q13547 whole entry): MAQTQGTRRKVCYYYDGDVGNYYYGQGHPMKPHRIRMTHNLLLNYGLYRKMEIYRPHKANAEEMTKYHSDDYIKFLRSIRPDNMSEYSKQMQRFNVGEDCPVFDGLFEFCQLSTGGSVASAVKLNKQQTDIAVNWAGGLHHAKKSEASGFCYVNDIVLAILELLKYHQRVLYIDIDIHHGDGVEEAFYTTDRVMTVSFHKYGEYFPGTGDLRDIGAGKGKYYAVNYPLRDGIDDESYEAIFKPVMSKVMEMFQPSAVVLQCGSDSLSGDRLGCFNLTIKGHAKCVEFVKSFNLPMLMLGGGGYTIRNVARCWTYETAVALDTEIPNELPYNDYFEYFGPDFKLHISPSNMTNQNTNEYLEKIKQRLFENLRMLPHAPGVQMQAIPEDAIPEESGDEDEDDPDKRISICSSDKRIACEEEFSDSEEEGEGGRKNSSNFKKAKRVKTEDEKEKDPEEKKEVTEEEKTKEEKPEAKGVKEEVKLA

For the compound `Nc1ccccc1NC(=O)c1ccc(N2CCOCC2)cc1` [Cpd 238], the IC50 in experiment [1] (setting [3]) was determined as 3 µM; in experiment [2] (HCT-116, 72 h, Table 5F), 6 µM.

For the compound `N#C/N=C(\NCc1ccc(C(=O)Nc2ccccc2N)cc1)Nc1ccncc1` [Cpd 240], the IC50 turned out to be 1.8 µM in experiment [1] (setting [3]) and 10 µM in experiment [2] (HCT-116, 72 h, Table 5F).

Turning to `Nc1ccccc1NC(=O)c1ccc(CN2CCOCC2)cc1` [Cpd 328], the IC50 was determined as 17 µM in experiment [1] (setting [3]) and 10 µM in experiment [2] (HCT-116, 72 h, Table 5F).

As for `Nc1nc(NCc2ccc(C(=O)Nc3ccccc3N)cc2)c2nc[nH]c2n1` [Cpd 331, N-(2-Amino-phenyl)-4-[(2-amino-9H-purin-6-ylamino)-methyl]-benzamide], the IC50 in experiment [1] (setting [3]) worked out at 4 µM; in experiment [2] (HCT-116, 72 h, Table 5F), 10 µM.

Regarding `Nc1ccccc1NC(=O)c1ccc(Cn2cnc3cc(F)c(F)cc3c2=O)cc1` [Cpd 339, N-(2-Amino-phenyl)-4-(6,7-difluoro-4-oxo-4H-quinazolin-3-ylmethyl)-benzamide], the IC50 in experiment [1] (setting [3]) is 4 µM; in experiment [2] (HCT-116, 72 h, Table 5F), 3 µM.

For `Nc1ccccc1NC(=O)c1ccc(-c2noc(-c3ccccc3)n2)cc1` [Cpd 352, N-(2-Amino-phenyl)-4-(5-phenyl-[1,2,4]oxadiazol-3-yl)-benzamide], the IC50 in experiment [1] (setting [3]) amounted to 16 µM; in experiment [2] (HCT-116, 72 h, Table 5F), 9 µM.

Consider `Cc1nc(-c2ccc(C(=O)Nc3ccccc3N)cc2)no1` [Cpd 353, N-(2-Amino-phenyl)-4-(5-methyl-[1,2,4]oxadiazol-3-yl)-benzamide], for which the IC50 in experiment [1] (setting [3]) worked out at 3 µM; in experiment [2] (HCT-116, 72 h, Table 5F), 10 µM.

`Nc1ccccc1NC(=O)c1ccc(-c2noc(CN3CCCCC3)n2)cc1` [Cpd 354, N-(2-Amino-phenyl)-4-(5-piperidin-1-ylmethyl-[1,2,4]oxadiazol-3-yl)-benzamide]: the IC50 worked out at 15 µM in experiment [1] (setting [3]) and 5 µM in experiment [2] (HCT-116, 72 h, Table 5F).

For `Nc1ccccc1NC(=O)c1ccc(-c2noc(CN3CCOCC3)n2)cc1` [Cpd 355, N-(2-Amino-phenyl)-4-(5-morpholin-4-ylmethyl-[1,2,4]oxadiazol-3-yl)-benzamide], the half-inhibitory concentration (IC50) was 25 µM in experiment [1] (setting [3]) and 10 µM in experiment [2] (HCT-116, 72 h, Table 5F).

For the compound `CCCc1nc(Cc2ccc(C(=O)Nc3ccccc3N)cc2)no1` [Cpd 356], the IC50 in experiment [1] (setting [3]) stood at 5 µM; in experiment [2] (HCT-116, 72 h, Table 5F) it was 2 µM.

Regarding `Nc1ccccc1NC(=O)c1ccc(CN2C(=O)COc3cccnc32)cc1` [Cpd 364, N-(2-Amino-phenyl)-4-(3-oxo-2,3-dihydro-pyrido[3,2-b][1,4]oxazin-4-ylmethyl)-benzamide], the IC50 is 4 µM in experiment [1] (setting [3]) and 0.6 µM in experiment [2] (HCT-116, 72 h, Table 5F).

Turning to `Nc1ccccc1NC(=O)c1ccc(Oc2ccccc2)cc1` [Cpd 366, N-(2-Amino-phenyl)-4-phenoxy-benzamide], the concentration for half-maximal inhibition (IC50) in experiment [1] (setting [3]) amounted to 14 µM; in experiment [2] (HCT-116, 72 h, Table 5F), 10 µM.

Take `Nc1ccccc1NC(=O)c1ccc(C(=O)Nc2ccccc2N)nc1` [Cpd 380, Pyridine-2,5-dicarboxylic acid bis-[(2-amino-phenyl)-amide]]: the IC50 was 6 µM in experiment [1] (setting [3]) and 8 µM in experiment [2] (HCT-116, 72 h, Table 5F).

With `Nc1ccccc1NC(=O)c1ccc(CNc2nccc3ccccc23)cc1` [Cpd 399, N-(2-Amino-phenyl)-4-(isoquinolin-1-ylaminomethyl)-benzamide], the 50% inhibitory concentration (IC50) stood at 14 µM in experiment [1] (setting [3]) and 9 µM in experiment [2] (HCT-116, 72 h, Table 5F).

Regarding `COc1cc(NCc2ccc(C(=O)Nc3ccccc3N)cc2)c(C(=O)O)cc1OC` [Cpd 406, 2-[4-(2-Amino-phenylcarbamoyl)-benzylamino]-4,5-dimethoxy-benzoic acid], the IC50 in experiment [1] (setting [3]) was found to be 3 µM; in experiment [2] (HCT-116, 72 h, Table 5F), 11 µM.

Consider `Cc1cc(C)cc(NCc2ccc(C(=O)Nc3ccccc3N)cc2)c1` [Cpd 407, N-(2-Amino-phenyl)-4-[(3,5-dimethyl-phenylamino)-methyl]-benzamide], for which the IC50 in experiment [1] (setting [3]) amounted to 3 µM; in experiment [2] (HCT-116, 72 h, Table 5F), 2 µM.

`Nc1ccccc1NC(=O)c1ccc(CNc2ccc(OCc3cccnc3)cc2)cc1` [Cpd 408, N-(2-Amino-phenyl)-4-{[4-(pyridin-3-ylmethoxy)-phenylamino]-methyl}-benzamide]: the IC50 in experiment [1] (setting [3]) came to 4 µM; in experiment [2] (HCT-116, 72 h, Table 5F), 2 µM.

As to `Cc1ccc(NCc2ccc(C(=O)Nc3ccccc3N)cc2)c(C)c1` [Cpd 409, N-(2-Amino-phenyl)-4-[(2,4-dimethyl-phenylamino)-methyl]-benzamide], the IC50 came out at 3 µM in experiment [1] (setting [3]) and 1 µM in experiment [2] (HCT-116, 72 h, Table 5F).

Regarding `Nc1ccccc1NC(=O)c1ccc(NC(=O)C(F)(F)F)cc1` [Cpd 431, N-(2-Aminophenyl)-4-(2,2,2-trifluoro-acetylamino)-benzamide], the concentration for half-maximal inhibition (IC50) worked out at 5 µM in experiment [1] (setting [3]) and 5 µM in experiment [2] (HCT-116, 72 h, Table 5F).

In the case of `COc1cc(NCc2ccc(C(=O)Nc3ccccc3N)cn2)cc(OC)c1OC` [Cpd 445, N-(2-Amino-phenyl)-6-[(3,4,5-trimethoxy-phenylamino)-methyl]-nicotinamide], the IC50 came to 16 µM in experiment [1] (setting [3]) and 6 µM in experiment [2] (HCT-116, 72 h, Table 5F).

Regarding `Nc1ccccc1NC(=O)c1ccc(NCCn2cnc3ccccc3c2=O)nc1` [Cpd 446, N-(2-Amino-phenyl)-6-[2-(4-oxo-4H-quinazolin-3-yl)-ethylamino]-nicotinamide], the IC50 amounted to 21 µM in experiment [1] (setting [3]) and 7 µM in experiment [2] (HCT-116, 72 h, Table 5F).

With `Nc1ccccc1NC(=O)c1ccc(CNc2ccc3[nH]c(=O)[nH]c3c2)cc1` [Cpd 449, N-(2-Amino-phenyl)-4-[(2-oxo-2,3-dihydro-1H-benzoimidazol-5-ylamino)-methyl]-benzamide], the IC50 in experiment [1] (setting [3]) was determined as 1 µM; in experiment [2] (HCT-116, 72 h, Table 5F), 6 µM.

For the compound `Nc1ccccc1NC(=O)c1ccc(CNc2ccc(SC(F)(F)F)cc2)cc1` [Cpd 450, N-(2-Amino-phenyl)-4-[(4-trifluoromethylsulfanyl-phenylamino)-methyl]-benzamide], the IC50 in experiment [1] (setting [3]) is 3 µM; in experiment [2] (HCT-116, 72 h, Table 5F), 2 µM.

As to `CNc1nc2cc(NCc3ccc(C(=O)Nc4ccccc4N)cc3)ccc2s1` [Cpd 456, N-(2-Amino-phenyl)-4-[(2-methylamino-benzothiazol-5-ylamino)-methyl]-benzamide], the IC50 in experiment [1] (setting [3]) came out at 3 µM; in experiment [2] (HCT-116, 72 h, Table 5F), 0.4 µM.

As to `Nc1ccccc1NC(=O)c1ccc(C#CC2(O)CCCCC2)nc1` [Cpd 463, N-(2-Amino-phenyl)-6-(1-hydroxy-cyclohexylethynyl)-nicotinamide], the IC50 in experiment [1] (setting [3]) stood at 12 µM; in experiment [2] (HCT-116, 72 h, Table 5F) it was 6 µM.

Consider `Cc1ccc(Sc2ccc(C(=O)Nc3ccccc3N)cn2)cc1` [Cpd 464, N-(2-Amino-phenyl)-6-p-tolylsulfanyl-nicotinamide], for which the IC50 came to 4 µM in experiment [1] (setting [3]) and 11 µM in experiment [2] (HCT-116, 72 h, Table 5F).

Turning to `CCCCNc1nc(NCCc2ccccc2)nc(NCc2ccc(C(=O)Nc3ccccc3N)cc2)n1` [Cpd 473], the IC50 in experiment [1] (setting [4]) worked out at 4 µM; in experiment [2] (HCT-116, 72 h, Table 5b), 3 µM.

`Nc1ccccc1NC(=O)c1ccc(CNc2nc(NCCc3ccc(Cl)cc3)nc(NC3CC3)n2)cc1` [Cpd 475]: the IC50 in experiment [1] (setting [4]) came to 0.6 µM; in experiment [2] (HCT-116, 72 h, Table 5b), 2 µM.

Consider `Nc1ccccc1NC(=O)c1ccc(CNc2nc(NCCc3cccc(Cl)c3)nc(NC3CC3)n2)cc1` [Cpd 477], for which the IC50 is 1 µM in experiment [1] (setting [4]) and 0.7 µM in experiment [2] (HCT-116, 72 h, Table 5b).

Take `COc1ccc(CCNc2nc(NCc3ccc(C(=O)Nc4ccccc4N)cc3)nc(NC3CC3)n2)cc1OC` [Cpd 478]: the IC50 came to 3 µM in experiment [1] (setting [4]) and 0.7 µM in experiment [2] (HCT-116, 72 h, Table 5b).

For `COc1cccc(CCNc2nc(NCc3ccc(C(=O)Nc4ccccc4N)cc3)nc(NC3CC3)n2)c1` [Cpd 479], the IC50 in experiment [1] (setting [4]) is 0.4 µM; in experiment [2] (HCT-116, 72 h, Table 5b), 0.6 µM.

For `Nc1ccccc1NC(=O)c1ccc(CNc2nc(NCCc3ccccn3)nc(NC3CC3)n2)cc1` [Cpd 480], the IC50 in experiment [1] (setting [4]) was determined as 0.8 µM; in experiment [2] (HCT-116, 72 h, Table 5b) it was 0.5 µM.

With `COc1cc(Nc2ccc(/C=C/C(=O)Nc3ccccc3N)cc2)cc(OC)c1OC` [Cpd 481], the IC50 in experiment [1] (setting [5]) is 22 µM; in experiment [2] (HCT-116, Table 5d), 10 µM.

Regarding `Nc1ccccc1NC(=O)c1ccc(CNc2nc(NCCc3cccnc3)nc(NC3CC3)n2)cc1` [Cpd 481], the IC50 in experiment [1] (setting [4]) came to 6 µM; in experiment [2] (HCT-116, 72 h, Table 5b), 0.7 µM.

Turning to `Nc1ccccc1NC(=O)c1ccc(CNc2nc(NC3CC3)nc(OCCc3ccccc3)n2)cc1` [Cpd 482], the IC50 came to 0.1 µM in experiment [1] (setting [4]) and 0.7 µM in experiment [2] (HCT-116, 72 h, Table 5b).

Turning to `COc1cc(/C=C/C(=O)Nc2ccccc2N)ccc1CNc1cc(OC)c(OC)c(OC)c1` [Cpd 484], the IC50 in experiment [1] (setting [5]) is 20 µM; in experiment [2] (HCT-116, Table 5d), 12 µM.

As to `Nc1nc(NCc2ccc(C(=O)Nc3ccccc3N)cc2)nc(-c2ccccc2)n1` [Cpd 484], the IC50 in experiment [1] (setting [4]) worked out at 2 µM; in experiment [2] (HCT-116, 72 h, Table 5b) it was 0.3 µM.

Take `Nc1ccccc1NC(=O)c1ccc(CNc2nc(NC3Cc4ccccc4C3)nc(-c3ccccc3)n2)cc1` [Cpd 485, N-(2-amino-phenyl)-4-{[6-(2-indanyl-amino)-4-phenyl-[1,3,5]-triazin-2-yl-amino]-methyl}-benzamide]: the IC50 in experiment [1] (setting [4]) turned out to be 0.4 µM; in experiment [2] (HCT-116, 72 h, Table 5b), 3 µM.

For `COc1cc(Cl)nc(NCc2ccc(/C=C/C(=O)Nc3ccccc3N)cc2)n1` [Cpd 493, N-(2-Amino-phenyl)-3-{4-[(4-chloro-6-methoxy-pyrimidin-2-ylamino)-methyl]-phenyl]-acrylamide], the IC50 was 4 µM in experiment [1] (setting [5]) and 5 µM in experiment [2] (HCT-116, Table 5d).

For `COc1cc(NCc2ccc(/C=C/C(=O)Nc3ccccc3N)cc2)cc(OC)c1` [Cpd 494], the IC50 amounted to 3 µM in experiment [1] (setting [5]) and 4 µM in experiment [2] (HCT-116, Table 5d).
